The values below come from US6528048B1, “Ophthalmic solutions” (Rohto Pharmaceutical Co., Ltd., priority 1998, dated 2003).

The data set deals with rabbit corneal epithelial cells. The data set is described as follows: Cytotoxicity, Neutral red assay. The class given is cell-based. To be noted: cultured 2 days. The procedure: Cytotoxicity of the compound (3) was evaluated by conducting a test according to the method of Neutral red assay using rabbit corneal epithelial cells of a CornePack kit (Kurabo Industries, Ltd.). The frozen cells of the primary culture were inoculated at a density of 4000 cells/cm^2 in a 25-cm^2 flask. The cells were cultured at 37° C. under an atmosphere of 5% CO2 for 5 days (the secondary culture) and then 100 μl aliquots of them were inoculated in the wells of a 96-well multi-plate at a cell density of 2500 cells/well. The culture was continued at 37° C. under an atmosphere of 5% CO2 for 3 days (tertiary culture). […] A 100 μl aliquot of the solutions was added into each well containing the corneal epithelial cells of the tertiary culture. The cells were further cultured at 37° C. under an atmosphere of 5% CO2 for 2 days. A 100 μl aliquot of a Neutral red solution (about 150 μg/ml) was added into each well. The cells were further cultured at 37° C. under an atmosphere of 5% CO2 for 2 hours to incorporate Neutral red into lysosomes of the viable cells. Then the culture supernatants were discarded by inverting the plate. A 200 μl aliquot of a solution containing formalin and calcium chloride were added into each well and the cells were fixed for 1 minute to improve the cell adhesion to the plate. The remaining Neutral red was washed out from the wells. Subsequently, the supernatants in the wells were discarded and 100 μl aliquots of a mixture consisting of acetic acid and ethanol were added to the wells. The plate was allowed to stand for 20 minutes to extract Neutral red incorporated in the viable cells. The amount of Neutral red was determined by measuring the absorbance at a wavelength of 540 nm. The averaged absorbance value of the blank (the measured value, which was obtained by the same assay procedure but in the absence of Neutral red, for the untreated control cells cultured under the same condition) was subtracted from the measured value of the sample to give the correction absorbance value. The viable cell rate was calculated from the ratio of the sample absorbance to the absorbance for the untreated cells according to the following equation. Viable cell rate in each plate=(Averaged absorbance of each test solution/Averaged absorbance of the untreated control)×100

With `N=C(NCCCCCCNC(=N)NC(=N)Nc1ccc(Cl)cc1)NC(=N)Nc1ccc(Cl)cc1.O=C(O)[C@H](O)[C@@H](O)[C@H](O)[C@H](O)CO.O=C(O)[C@H](O)[C@@H](O)[C@H](O)[C@H](O)CO` [Chlorhexidine gluconate], the Viable cell rate was 103% (test solution 1.0 μg/ml), 74% (test solution 2.5 μg/ml), 49% (test solution 5.0 μg/ml) and 3% (test solution 10.0 μg/ml).
In the case of Benzalkonium chloride, the Viable cell rate runs as follows: (test solution 0.5 μg/ml) 60%; (test solution 1.0 μg/ml) 52%; (test solution 2.5 μg/ml) 49%; (test solution 5.0 μg/ml) 2%.
